Assay results from ChEMBL document CHEMBL1145448, “Synthesis and evaluation of tripodal peptide analogues for cellular delivery of phosphopeptides” (J Med Chem, 2007).
Non-standard residues stand in square brackets, D forms with d. Residues, ends and D or L forms follow the SMILES beside them. *: point of attachment. X1 = O=C(O)c1cc(C(=O)*)ccc1-c1c2ccc(=O)cc-2oc2cc(O)ccc12; pY = N[C@@H](Cc1ccc(OP(=O)(O)O)cc1)C(=O)O; 12Ado = NCCCCCCCCCCCC(=O)O

Experiments:
[1] = Cytotoxicity against BT20 cells by cell viability assay; assay type: cell-based; conditions: human, bt-20
[2] = Cellular uptake in BT20 cells in presence of 77 mM sodium azide; assay type: ADME, cell-based; conditions: human, bt-20

| Activity [2] | Structure (SMILES) | Activity [1] [%] |
| --- | --- | --- |
|  | CC[C@H](C)[C@H](NC(=O)[C@H](CCC(=O)O)NC(=O)[C@H](CCC(=O)O)NC(=O)[C@H](Cc1ccc(OP(=O)(O)O)cc1)NC(=O)CNC(=O)c1ccc(-c2c3ccc(=O)cc-3oc3cc(O)ccc23)c(C(=O)O)c1)C(=O)O (X1-G[pY]EEI-OH) | > 96 |
| Active | N=C(N)NCCC[C@H](NC(=O)CCCCCCCCCCCNC(=O)[C@H](CCCNC(=N)N)NC(=O)CCCCCCCCCCCNC(=O)[C@H](CCCCN)NC(=O)CNC(=O)c1ccc(-c2c3ccc(=O)cc-3oc3cc(O)ccc23)c(C(=O)O)c1)C(=O)O (X1-GK[12Ado]R[12Ado]R-OH) | > 96 |
